In patent US8598357B2, “Benzodioxole piperidine compounds” (Hoffmann-La Roche Inc., priority 2011, dated 2013):
Where two headings read alike, the source gives them in different places.

Assays:
D2 receptor = D2 receptor (Homo sapiens (Human), UniProt P14416); assay: Radioligand binding assay ([3H]-spiperone) on membranes of HEK293 EBNA cells expressing human D2 receptor; settings: human receptor in HEK293 EBNA cells; 0.7 nM [3H]-spiperone
Procedure: (§1) HEK293 EBNA cells were transiently transfected with expression plasmids encoding for the human D2 or D3 or for the human 5-HT2A receptor, respectively. The cells were harvested 48 h post-transfection, washed three times with cold PBS and stored at −80° C. prior to use. The pellet was suspended in cold 50 mM Tris-HCl buffer containing 10 mM EDTA (pH 7.4) and was homogenized with a Polytron (Kinematica AG, Basel, Switzerland) for 20-30 sec at 12.000 rpm. After centrifugation at 48.000×g for 30 min at 4° C., the pellet was resuspended in cold 10 mM Tris-HCl buffer containing 0.1 mM EDTA (pH 7.4), homogenized, and centrifuged as above. This pellet was further resuspended in a smaller volume of ice cold 10 mM Tris-HCl buffer containing 0.1 mM EDTA (pH 7.4) and homogenized with a Polytron for 20-30 sec at 12.000 rpm. The protein content of this homogenate was determined with the Bio-Rad (Bradford) Protein Assay (Biorad Laboratories GmbH, München, Germany) according to the instructions of the manufacturer using gamma globulin as the standard. This homogenate was stored at −80° C. in aliquots and thawed immediately prior to use.
(§2) Aliquots of membrane preparations were thawed at RT, resuspended in assay buffer (D2, D3: 50 mM Tris-HCl, 120 mM NaCl, 5 mM MgCl2, 1 mM EDTA, 5 mM KCl, 1.5 mM CaCl2, pH=7.4; 5-HT2A: 50 mM Tris-HCl, 10 mM MgCl2, 1 mM EGTA, pH=7.4), homogenized with a Polytron for 20-30 sec at 12.000 rpm and adjusted to a final concentration of approximately 7.5 μg protein/well (D2, D3) and 15 μg protein/well (5-HT2A), respectively.
(§3) The nonspecific binding was determined with equally composed reaction mixtures in the presence of 10 μM unlabelled spiperone. Per well 45 μl of Microscint 40 (Perkin Elmer, Schwerzenbach, Switzerland) was added, plates for sealed, shaken for 20 min and counted for 3 min on a Topcount Microplate Scintillation Counter (Can berra Packard SA, Ziirich, Switzerland) with quenching correction.
(§4) The CPM value for each duplicate of a concentration of competing compound was averaged (y1), then the % specific binding was calculated according to the equation (((y1−non-specific)/(total binding−non-specific))×100). Graphs were plotted with the % specific binding using XLfit, a curve fitting program that iteratively plots the data using Levenberg-Marquardt algorithm. The single site competition analysis equation used was y=A+((B−A)/(1+((x/C)D))), where y is the % specific binding, A is the minimum y, B is the maximum y, C is the IC50, x is the log 10 of the concentration of the competing compound and D is the slope of the curve (the Hill Coefficient). […] The affinity constant (K) was calculated using the Cheng-Prusoff equation Ki=(IC50/1+([L]/Kd), where [L] is the concentration of radioligand and Kd is the dissociation constant of the radioligand at the receptor as determined by the saturation isotherm.

D3 receptor = D3 receptor (Homo sapiens (Human), UniProt P35462); assay: Radioligand binding assay ([3H]-spiperone) on membranes of HEK293 EBNA cells expressing human D3 receptor; settings: read-out: D3 Ki; human receptor in HEK293 EBNA cells; 0.5 nM [3H]-spiperone
D3 receptor, sequence (P35462 whole entry): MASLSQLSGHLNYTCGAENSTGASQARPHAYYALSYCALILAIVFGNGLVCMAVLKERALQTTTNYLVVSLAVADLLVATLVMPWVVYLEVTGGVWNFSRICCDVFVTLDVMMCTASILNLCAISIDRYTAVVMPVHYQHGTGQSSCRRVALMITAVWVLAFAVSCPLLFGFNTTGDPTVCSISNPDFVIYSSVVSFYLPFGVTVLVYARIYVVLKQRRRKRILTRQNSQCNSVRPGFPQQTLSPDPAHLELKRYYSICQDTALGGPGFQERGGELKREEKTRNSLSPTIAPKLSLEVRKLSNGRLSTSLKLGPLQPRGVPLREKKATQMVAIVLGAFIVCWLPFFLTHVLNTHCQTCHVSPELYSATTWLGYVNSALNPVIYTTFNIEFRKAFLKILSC
Procedure: as §1, §2, §3, §4

5-HT2A receptor = 5-HT2A receptor (Homo sapiens (Human), UniProt P28223); assay: Radioligand binding assay ([3H]-ketanserin) on membranes of HEK293 EBNA cells expressing human 5-HT2A receptor; settings: read-out: 5HT2A Ki
Procedure: as §1, §2, §3, §4

[1] = human receptor in HEK293 EBNA cells, 1.1 nM [3H]-ketanserin

D2 receptor, sequence (P14416 whole entry): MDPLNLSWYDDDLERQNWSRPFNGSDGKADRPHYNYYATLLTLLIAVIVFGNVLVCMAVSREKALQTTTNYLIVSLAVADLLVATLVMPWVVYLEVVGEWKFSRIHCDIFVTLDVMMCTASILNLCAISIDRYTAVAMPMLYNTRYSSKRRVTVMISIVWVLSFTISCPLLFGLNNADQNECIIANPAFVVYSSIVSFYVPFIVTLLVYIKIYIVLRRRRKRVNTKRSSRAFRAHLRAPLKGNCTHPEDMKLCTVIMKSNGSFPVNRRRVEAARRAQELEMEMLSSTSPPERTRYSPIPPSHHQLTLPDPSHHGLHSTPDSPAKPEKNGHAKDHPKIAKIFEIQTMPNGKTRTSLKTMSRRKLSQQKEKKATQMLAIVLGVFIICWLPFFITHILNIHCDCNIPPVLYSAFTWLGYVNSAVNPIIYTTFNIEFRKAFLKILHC

SMILES	Ki (D2 receptor) [µM]	Ki (D3 receptor) [µM]	Ki (5-HT2A receptor) [µM]	Ki (5-HT2A receptor; [1]) [µM]
O=C(N[C@H]1CC[C@H](CCN2CCC(c3cccc4c3OCO4)CC2)CC1)c1ccc2c(c1)OCCO2 [Example 58, 2,3-Dihydro-benzo[1,4]dioxine-6-carboxylic acid-trans-N-{4-[2-(4-benzo[1,3]dioxol-4-yl-piperidin-1-yl)-ethyl]-cyclohexyl}-amide]	0.345	0.0037	0.0201	–
O=C(Cc1ccc2c(c1)OCO2)N[C@H]1CC[C@H](CCN2CCC(c3cccc4c3OCO4)CC2)CC1 [Example 59, 2-Benzo[1,3]dioxol-5-yl-trans-N-{4-[2-(4-benzo[1,3]dioxol-4-yl-piperidin-1-yl)-ethyl]-cyclohexyl}-acetamide]	0.325	0.00402	–	0.0367
O=C(N[C@H]1CC[C@H](CCN2CCC(c3cccc4c3OCO4)CC2)CC1)C1COc2ccccc2C1 (stereo partly drawn) [Example 60, Chroman-3-carboxylic acid-trans-N-{4-[2-(4-benzo[1,3]dioxol-4-yl-piperidin-1-yl)-ethyl]-cyclohexyl}-amide]	1.05	0.00673	–	0.0218
CN1CCC(C(=O)N[C@H]2CC[C@H](CCN3CCC(c4cccc5c4OCO5)CC3)CC2)CC1 [Example 61, 1-Methyl-piperidine-4-carboxylic acid-trans-N-{4-[2-(4-benzo[1,3]dioxol-4-yl-piperidin-1-yl)-ethyl]-cyclohexyl}-amide]	0.15	0.0351	–	0.00591
CC1(C(=O)N[C@H]2CC[C@H](CCN3CCC(c4cccc5c4OCO5)CC3)CC2)COC1 [Example 62, 3-Methyl-oxetane-3-carboxylic acid-trans-N-{4-[2-(4-benzo[1,3]dioxol-4-yl-piperidin-1-yl)-ethyl]-cyclohexyl}-amide]	0.225	0.039	–	0.0221
CO[C@H]1CC[C@H](CC(=O)N[C@H]2CC[C@H](CCN3CCC(c4cccc5c4OCO5)CC3)CC2)CC1 [Example 63, Trans-N-{4-[2-(4-Benzo[1,3]dioxol-4-yl-piperidin-1-yl)-ethyl]-cyclohexyl}-2-(4-methoxy-cyclohexyl)-acetamide]	0.361	0.00813	–	0.0343
C[C@@H](O)C(=O)N[C@H]1CC[C@H](CCN2CCC(c3cccc4c3OCO4)CC2)CC1 [Example 64, (R)-trans-N-{4-[2-(4-Benzo[1,3]dioxol-4-yl-piperidin-1-yl)-ethyl]-cyclohexyl}-2-hydroxy-propionamide]	0.268	0.0111	–	0.0107
O=C(CO)N[C@H]1CC[C@H](CCN2CCC(c3cccc4c3OCO4)CC2)CC1 [Example 65, Trans-N-{4-[2-(4-Benzo[1,3]dioxol-4-yl-piperidin-1-yl)-ethyl]-cyclohexyl}-2-hydroxy-acetamide]	0.298	0.00909	–	0.0214
O=C(N[C@H]1CC[C@H](CCN2CCC(c3cccc4c3OCO4)CC2)CC1)C1(O)CCCCC1 [Example 66, 1-Hydroxy-cyclohexanecarboxylic acid-trans-N-{4-[2-(4-benzo[1,3]dioxol-4-yl-piperidin-1-yl)-ethyl]-cyclohexyl}-amide]	0.219	0.0175	0.00393	–
COC1(C(=O)N[C@H]2CC[C@H](CCN3CCC(c4cccc5c4OCO5)CC3)CC2)CCCCC1 [Example 67, 1-Methoxy-cyclohexanecarboxylic acid-trans-N-{4-[2-(4-benzo[1,3]dioxol-4-yl-piperidin-1-yl)-ethyl]-cyclohexyl}-amide]	0.197	0.0386	–	0.0116
CN1CCN(CC(=O)N[C@H]2CC[C@H](CCN3CCC(c4cccc5c4OCO5)CC3)CC2)CC1 [Example 68, Trans-N-{4-[2-(4-Benzo[1,3]dioxol-4-yl-piperidin-1-yl)-ethyl]-cyclohexyl}-2-(4-methylpiperazin-1-yl)-acetamide]	0.104	0.0198	–	0.031
CS(=O)(=O)N[C@H]1CC[C@H](CCN2CCC(c3cccc4c3OCO4)CC2)CC1 [Example 69, Trans-N-{4-[2-(4-Benzo[1,3]dioxol-4-yl-piperidin-1-yl)-ethyl]-cyclohexyl}-methanesulfonamide]	0.414	0.0105	–	0.0313
O=S(=O)(N[C@H]1CC[C@H](CCN2CCC(c3cccc4c3OCO4)CC2)CC1)c1ccccc1 [Example 70, Trans-N-{4-[2-(4-Benzo[1,3]dioxol-4-yl-piperidin-1-yl)-ethyl]cyclohexyl}-benzenesulfonamide]	0.0635	0.00365	0.0522	–
O=S(=O)(N[C@H]1CC[C@H](CCN2CCC(c3cccc4c3OCO4)CC2)CC1)c1ccc(F)cc1 [Example 71, N-trans-{4-[2-(4-Benzo[1,3]dioxol-4-yl-piperidin-1-yl)-ethyl]-cyclohexyl}-4-fluoro-benzenesulfonamide]	0.104	0.00263	0.0655	–
Cn1cnc(S(=O)(=O)N[C@H]2CC[C@H](CCN3CCC(c4cccc5c4OCO5)CC3)CC2)c1 [Example 72, 1-Methyl-1H-imidazole-4-sulfonic acid-trans-N-{4-[2-(4-benzo[1,3]dioxol-4-yl-piperidin-1-yl)-ethyl]-cyclohexyl}-amide]	0.114	0.0124	–	0.0648
O=C(N[C@H]1CC[C@H](CCN2CCC(c3cccc4c3OCO4)CC2)CC1)C(F)(F)F [Example 73, Trans-N-{4-[2-(4-Benzo[1,3]dioxol-4-yl-piperidin-1-yl)-ethyl]-cyclohexyl}-2,2,2-trifluoro-acetamide]	0.346	0.0214	–	0.0374
O=C(N[C@H]1CC[C@H](CCN2CCC(c3cccc4c3OCO4)CC2)CC1)N1CCc2ccccc21 [Example 74, 2,3-Dihydro-indole-1-carboxylic acid N-trans-{4-[2-(4-benzo[1,3]dioxol-4-yl-piperidin-1-yl)-ethyl]-cyclohexyl}-amide]	0.229	0.00512	0.0254	–
CN(C)C(=O)N[C@H]1CC[C@H](CCN2CCC(c3cccc4c3OCO4)CC2)CC1 [Example 75, N-Trans-3-{4-[2-(4-Benzo[1,3]dioxol-4-yl-piperidin-1-yl)-ethyl]cyclohexyl}-1,1-dimethyl-urea]	0.0527	0.0329	–	0.0456
O=C(CF)N[C@H]1CC[C@H](CCN2CCC(c3cccc4c3OCO4)CC2)CC1 [Example 76, Trans-N-{4-[2-(4-Benzo[1,3]dioxol-4-yl-piperidin-1-yl)-ethyl]-cyclohexyl}-2-fluoro-acetamide]	0.23	0.0124	–	0.0399
O=C(Nc1ccc(Cl)cc1)N[C@H]1CC[C@H](CCN2CCC(c3cccc4c3OCO4)CC2)CC1 [Example 77, N-trans-1-{4-[2-(4-Benzo[1,3]dioxol-4-yl-piperidin-1-yl)-ethyl]-cyclohexyl}-3-(4-chloro-phenyl)-urea]	2.71	0.0236	–	0.224
CN(C)S(=O)(=O)N[C@H]1CC[C@H](CCN2CCC(c3cccc4c3OCO4)CC2)CC1 [Example 78, Trans-N-{4-[2-(4-benzo[1,3]dioxol-4-yl-piperidin-1-yl)-ethyl]-cyclohexyl}-N,N-dimethyl-sulfamide]	0.229	0.0116	–	0.0207
O=S(=O)(N[C@H]1CC[C@H](CCN2CCC(c3cccc4c3OCO4)CC2)CC1)N1CCOCC1 [Example 79, Morpholine-4-sulfonic acid-Trans-N-{4-[2-(4-benzo[1,3]dioxol-4-yl-piperidin-1-yl)-ethyl]-cyclohexyl}-amide]	0.229	0.00611	0.0561	–
